# Reference: patent US20110294952A1, “Optimized Drug Conjugates” (SynDevRX, priority 2010, published 2011)
# Experiments:
# [1] = Aqueous stability of carbamoylfumagillol in buffer; format: physicochemical; conditions: for Natural Rate Constant: 37° C., 5 μM
# Experimental: At the appropriate time points, a 50 μL sample was withdrawn and diluted with three volumes of methanol containing propranolol as an internal standard (one solution was made for the entire study). The concentration of carbamoylfumagillol in the solution was analyzed by LC/MS/MS over seven days.
# [2] = tested on: A549 cells vs HUVEC cells; assay: A549/HUVEC selectivity; format: cell-based, human; conditions: ratio of IC50 values
# A549 cells [3] = assay: A549 human non-small cell lung carcinoma cell viability assay (CellTiter-Glo); format: cell-based; conditions: small molecules, 72 hours
# Experimental: (§1) Test compounds, small molecules or polymer conjugates, were dissolved in dimethyl sulfoxide to a stock concentration of 5 mg/mL. The test agents were then diluted to an intermediate concentration at 200 μg/mL in 10% DMSO. Further dilutions were completed serially 3-fold in 10% DMSO to produce 12 decreasing concentrations for in-vitro analysis. To achieve the target concentrations of the in-vitro assays, 1 μL of the intermediate drug preparation was delivered to the cells (seeded in a volume of 50 μL). The final DMSO concentration for the tests was 0.2% for all doses of test agent.
# Cells were exposed to twelve increasing concentrations of formulated test agent from 2×10^−6 to 4.0 μg/mL for 72 hours. Following 72 hour exposure, 25 μL it of CellTiter-Glo® Reagent was added to each well. The plates were incubated for 60 minutes at 37° C. in a humidified incubator. After incubation, luminescence was recorded using the Molecular Devices AnalystGT multi-mode reader.
# Data are expressed as the percent cell growth of the untreated (vehicle) control calculated from the luminescence signals. The surviving fraction of cells is determined by dividing the mean luminescence values of the test agents by the mean luminescence values of untreated control. […]
# HCT-116 cells = assay: HCT-116 human colon tumor cell viability assay (CellTiter-Glo); format: cell-based; conditions: small molecules, 72 hours, read-out: HCT116 IC50 Average
# Experimental: as §1
# (§2) Data are expressed as the percent cell growth of the untreated (vehicle) control calculated from the luminescence signals. The surviving fraction of cells is determined by dividing the mean luminescence values of the test agents by the mean luminescence values of untreated control. The inhibitory concentration value for the test agent(s) and control were estimated using Prism 5 software (GraphPad Software, Inc.) by curve-fitting the data using the non-linear regression analysis.
# The human tumor cell lines A549 and HCT-116 were obtained from American Type Culture Collection (Manassas, Va.). […]
# Cells were exposed to twelve increasing concentrations of formulated test agent from 2.3×10^−6 to 4.02 μg/mL for 72 hours. […] After incubation, luminescence was recorded using the Molecular Devices AnalystGT multi-mode reader.
# HUVEC cells = assay: Human umbilical vein epithelial cell viability assay (CellTiter-Glo); format: cell-based; conditions: small molecules, 72 hours
# Experimental: as §1, §2
# The Human umbilical vein epithelial cells (HUVEC) were obtained from Lonza (Basel, Switzerland). […]
# HUVEC cells were seeded at 1000 cells per well 24 hours prior to test agent exposure in a volume of 50 μL. […] After incubation, luminescence was recorded using the Molecular Devices AnalystGT multi-mode reader.
# [4] = In vivo pharmacokinetics of polymer conjugate; set-up: species or system Sprague-Dawley rats; conditions: SDX-7539 single bolus IV 30 mg/kg, rat plasma
# Experimental: FIG. 6 is a graph showing the plasma concentration of the active metabolite, SDX-7539, as a function of time in Sprague-Dawley rats, to which either the polymer conjugate SDX-7320 (single bolus, intravenous injection, 200 mg/kg) or the small molecule SDX-7539 (single bolus, intravenous injection, 30 mg/kg) has been administered.
# The polymer conjugate, SDX-7320, or the in vivo release product, SDX-7539 were administered to Sprague-Dawley rats (N=3). Blood was collected over 48 hours after dosing to determine the plasma concentration of SDX-7539 by LC-MS/MS. The LLOQ for SDX-7539 was 2.5 nM. The terminal elimination half-life for SDX-7539 was estimated by fitting a linear regression to the ln [SDX-7539] versus time data. […] Cmax for the polymer is about 2% of the value for the small molecule.
# A549 cells [5] = format: in vitro ADME, human
# Experimental: Cells were treated as in Example 51 except that at the end of 72 hour exposure to test agent, the cells were frozen (−70° C.) and stored for subsequent evaluation by LC/MS.
compound,measurement,setting,value
"CO[C@@H]1[C@H](OC(N)=O)CC[C@]2(CO2)[C@H]1[C@@]1(C)O[C@@H]1CC=C(C)C [Compound O-7127-1, Carbamoylfumagillol]",Natural Rate Constant,[1]; pH 4.0 sodium acetate buffer,0.0054 h⁻¹
same,Natural Rate Constant,[1]; pH 5.3 sodium acetate buffer,0.0017 h⁻¹
same,decomposition over the seven day period,"[1]; pH 5.3 to 8.0, 37° C., seven days",less than 20%
same,Natural Rate Constant,[1]; pH 6.7 potassium phosphate buffer,0.0010 h⁻¹
same,Natural Rate Constant,[1]; pH 8.0 potassium phosphate buffer,0.0011 h⁻¹
same,A549/HUVEC IC50 ratio,[2],33.63
"CO[C@@H]1[C@H](OC(=O)N[C@@H](C(N)=O)C(C)C)CC[C@]2(CO2)[C@H]1[C@@]1(C)O[C@@H]1CC=C(C)C [Compound O-7177, PPI-2458]",IC50,A549 cells [3],0.215 ng/mL
same,IC50,HCT-116 cells,0.236 ng/mL
same,IC50,HUVEC cells,0.101 ng/mL
CO[C@@H]1[C@H](OC(=O)NC2CCC(N)CC2)CC[C@]2(CO2)[C@H]1[C@@]1(C)O[C@@H]1CC=C(C)C (stereo partly drawn) [SDX-7539],Cmax,[4],~15 µM
same,half-life of SDX-7539,[4],10 to 15 min
poly[HPMA-co-MA-GFLG-N-(6-aminohexyl)carbamoylfumagillol],metabolites identified from treated cells,A549 cells [5],"N-(6-aminohexyl)carbamoylfumagillol, fumagill-6-yl {6-[(aminoacetyl)amino]hexyl}carbamate, and the epoxide hydrolysis product, (3S,7aR)-7a-(hydroxymethyl)-4-methoxy-3-methyl-2-(3-methylbut-2-en-1-yl)octahydro-1-benzofuran-3-ol-5-yl 6-aminohexyl carbamate"
